Results as given in ChEMBL document CHEMBL1145395, “De novo design of selective antibiotic peptides by incorporation of unnatural amino acids” (J Med Chem, 2007).
Values after ≈ are worked out from the molar mass of the structure shown. Starred links: 1 amine or outer side, 2 acyl side, 3 side chain; linkers in the order of their positions; H or OH if unused. Non-standard residues stand in square brackets, D forms with d. Residues, ends and D or L forms follow the SMILES beside them. ξ: configuration not given here. *: point of attachment. Pro(3ξ,4ξ-(CH2)4) = O=C(O)[C@H]1NCC2CCCCC21; Oic = O=C(O)[C@@H]1C[C@@H]2CCCC[C@@H]2N1; Phe(4-F) = N[C@@H](Cc1ccc(F)cc1)C(=O)O; Ethylenediamine = C(CN[*:2])N[*:1]; Tic = O=C(O)[C@@H]1Cc2ccccc2CN1; Dap = NC[C@H](N)C(=O)O; NH(CH2)3NH2 = NCCCN*; GABA = NCCCC(=O)O; βAla = NCCC(=O)O

Experiments:
Bacillus subtilis = assay: Antibacterial activity against Bacillus subtilis ATCC 43223; type: functional
Mycobacterium = assay: Antibacterial activity against Mycobacterium ranae ATCC 110; type: functional
Staphylococcus aureus = assay: Antibacterial activity against methicillin/gentamicin/tetracycline resistant Staphylococcus aureus ATCC 33592; type: functional
Salmonella typhimurium = assay: Antibacterial activity against Salmonella Typhimurium ATCC 13311; type: functional, Salmonella enterica subsp. enterica serovar Typhimurium; conditions: Salmonella enterica

Row | Structure (SMILES) | MIC (Bacillus subtilis) [µM] | MIC (Mycobacterium) [µM] | MIC (Staphylococcus aureus) [µM] | MIC (Salmonella typhimurium) [µM]
1 | CC(=O)NCC(=O)N[C@@H](Cc1ccccc1)C(=O)N[C@@H](Cc1ccccc1)C(=O)N1CC2CCCCC2[C@H]1C(=O)NCC(=O)N[C@@H](CCCCN)C(=O)N[C@@H](Cc1ccccc1)C(=O)N1CC2CCCCC2[C@H]1C(=O)NCC(=O)N[C@@H](Cc1ccccc1)C(=O)N[C@@H](Cc1ccccc1)C(=O)N1CC2CCCCC2[C@H]1C(=O)NCC(=O)N[C@@H](CCCCN)C(=O)N[C@@H](Cc1ccccc1)C(=O)N[C@@H](CCCCN)C(=O)N[C@@H](CCCCN)C(=O)N[C@@H](CCCCN)C(=O)N[C@@H](CCCCN)C(N)=O (stereo partly drawn) (Ac-GFF[Pro(3ξ,4ξ-(CH2)4)]GKF[Pro(3ξ,4ξ-(CH2)4)]GFF[Pro(3ξ,4ξ-(CH2)4)]GKFKKKK-NH2) | 3 (≈ 7.18 µg/mL) | 10 (≈ 23.9 µg/mL) | 10 (≈ 23.9 µg/mL) | 10 (≈ 23.9 µg/mL)
2 | CC(=O)NCC(=O)N[C@@H](Cc1ccccc1)C(=O)NCC(=O)N1CC2CCCCC2[C@H]1C(=O)NCC(=O)N[C@@H](CCCCN)C(=O)NCC(=O)N1CC2CCCCC2[C@H]1C(=O)NCC(=O)N[C@@H](Cc1ccccc1)C(=O)NCC(=O)N1CC2CCCCC2[C@H]1C(=O)NCC(=O)N[C@@H](CCCCN)C(=O)NCC(=O)N[C@@H](CCCCN)C(=O)N[C@@H](CCCCN)C(=O)N[C@@H](CCCCN)C(=O)N[C@@H](CCCCN)C(N)=O (stereo partly drawn) (Ac-GFG[Pro(3ξ,4ξ-(CH2)4)]GKG[Pro(3ξ,4ξ-(CH2)4)]GFG[Pro(3ξ,4ξ-(CH2)4)]GKGKKKK-NH2) | 30 (≈ 61 µg/mL) | 100 (≈ 203 µg/mL) | 3 (≈ 6.1 µg/mL) | 
3 | CC(=O)NCC(=O)N[C@@H](Cc1ccccc1)C(=O)N1CC2CCCCC2[C@H]1C(=O)NCC(=O)N[C@@H](CCCCN)C(=O)N1CC2CCCCC2[C@H]1C(=O)NCC(=O)N[C@@H](Cc1ccccc1)C(=O)N1CC2CCCCC2[C@H]1C(=O)NCC(=O)N[C@@H](CCCCN)C(=O)N[C@@H](CCCCN)C(=O)N[C@@H](CCCCN)C(=O)N[C@@H](CCCCN)C(=O)N[C@@H](CCCCN)C(N)=O (stereo partly drawn) (Ac-GF[Pro(3ξ,4ξ-(CH2)4)]GK[Pro(3ξ,4ξ-(CH2)4)]GF[Pro(3ξ,4ξ-(CH2)4)]GKKKKK-NH2) | 3 (≈ 5.41 µg/mL) | 100 (≈ 180 µg/mL) |  | 100 (≈ 180 µg/mL)
4 | CC(=O)NCC(=O)N[C@@H](Cc1ccccc1)C(=O)N1Cc2ccccc2C[C@H]1C(=O)N1[C@H](C(=O)NCC(=O)N[C@@H](CCCCN)C(=O)N2Cc3ccccc3C[C@H]2C(=O)N2[C@H](C(=O)NCC(=O)N[C@@H](Cc3ccccc3)C(=O)N3Cc4ccccc4C[C@H]3C(=O)N3[C@H](C(=O)NCC(=O)N[C@@H](CCCCN)C(=O)N4Cc5ccccc5C[C@H]4C(=O)N[C@@H](CCCCN)C(=O)N[C@@H](CCCCN)C(=O)N[C@@H](CCCCN)C(=O)N[C@@H](CCCCN)C(=O)NCCN)C[C@@H]4CCCC[C@@H]43)C[C@@H]3CCCC[C@@H]32)C[C@@H]2CCCC[C@@H]21 (Ac-GF[Tic][Oic]GK[Tic][Oic]GF[Tic][Oic]GK[Tic]KKKK-Ethylenediamine) | 1 (≈ 2.48 µg/mL) | 10 (≈ 24.8 µg/mL) | 3 (≈ 7.45 µg/mL) | 10 (≈ 24.8 µg/mL)
5 | CC(=O)NCC(=O)N[C@@H](Cc1ccccc1)C(=O)N1Cc2ccccc2C[C@H]1C(=O)N1[C@H](C(=O)NCC(=O)N[C@@H](CCCCN)C(=O)N2Cc3ccccc3C[C@H]2C(=O)N2[C@H](C(=O)NCC(=O)N[C@@H](Cc3ccccc3)C(=O)N3Cc4ccccc4C[C@H]3C(=O)N3[C@H](C(=O)NCC(=O)N[C@@H](CCCCN)C(=O)N4Cc5ccccc5C[C@H]4C(=O)N[C@@H](CCCCN)C(=O)N[C@@H](CCCCN)C(=O)N[C@@H](CCCCN)C(=O)N[C@@H](CCCCN)C(=O)NCCCN)C[C@@H]4CCCC[C@@H]43)C[C@@H]3CCCC[C@@H]32)C[C@@H]2CCCC[C@@H]21 (Ac-GF[Tic][Oic]GK[Tic][Oic]GF[Tic][Oic]GK[Tic]KKKK-{NH(CH2)3NH2}) | 3 (≈ 7.49 µg/mL) | 10 (≈ 25 µg/mL) | 10 (≈ 25 µg/mL) | 30 (≈ 74.9 µg/mL)
6 | CC(=O)NCC(=O)N[C@@H](Cc1ccccc1)C(=O)N1Cc2ccccc2C[C@H]1C(=O)N1[C@H](C(=O)NCC(=O)N[C@@H](CN)C(=O)N2Cc3ccccc3C[C@H]2C(=O)N2[C@H](C(=O)NCC(=O)N[C@@H](Cc3ccccc3)C(=O)N3Cc4ccccc4C[C@H]3C(=O)N3[C@H](C(=O)NCC(=O)N[C@@H](CN)C(=O)N4Cc5ccccc5C[C@H]4C(=O)N[C@@H](CN)C(=O)N[C@@H](CN)C(=O)N[C@@H](CN)C(=O)N[C@@H](CN)C(N)=O)C[C@@H]4CCCC[C@@H]43)C[C@@H]3CCCC[C@@H]32)C[C@@H]2CCCC[C@@H]21 (Ac-GF[Tic][Oic]G[Dap][Tic][Oic]GF[Tic][Oic]G[Dap][Tic][Dap][Dap][Dap][Dap]-NH2) | 1 (≈ 2.19 µg/mL) | 100 (≈ 219 µg/mL) | 10 (≈ 21.9 µg/mL) | 3 (≈ 6.57 µg/mL)
7 | CC(=O)NCC(=O)N[C@@H](Cc1ccccc1)C(=O)N1Cc2ccccc2C[C@H]1C(=O)N1CC2CCCCC2[C@H]1C(=O)NCC(=O)N[C@@H](CCCCN)C(=O)N1Cc2ccccc2C[C@H]1C(=O)N1CC2CCCCC2[C@H]1C(=O)NCC(=O)N[C@@H](Cc1ccccc1)C(=O)N1Cc2ccccc2C[C@H]1C(=O)N1CC2CCCCC2[C@H]1C(=O)NCC(=O)N[C@@H](CCCCN)C(=O)N1Cc2ccccc2C[C@H]1C(=O)N[C@@H](CCCCN)C(=O)N[C@@H](CCCCN)C(=O)N[C@@H](CCCCN)C(=O)N[C@@H](CCCCN)C(=O)N[C@@H](CCCCN)C(N)=O (stereo partly drawn) (Ac-GF[Tic][Pro(3ξ,4ξ-(CH2)4)]GK[Tic][Pro(3ξ,4ξ-(CH2)4)]GF[Tic][Pro(3ξ,4ξ-(CH2)4)]GK[Tic]KKKKK-NH2) | 1 (≈ 2.57 µg/mL) | 3 (≈ 7.71 µg/mL) | 3 (≈ 7.71 µg/mL) | 10 (≈ 25.7 µg/mL)
8 | CC(=O)NCC(=O)N[C@@H](Cc1ccc(F)cc1)C(=O)N1Cc2ccccc2C[C@H]1C(=O)N1CC2CCCCC2[C@H]1C(=O)NCC(=O)N[C@@H](CCCCN)C(=O)N1Cc2ccccc2C[C@H]1C(=O)N1CC2CCCCC2[C@H]1C(=O)NCC(=O)N[C@@H](Cc1ccc(F)cc1)C(=O)N1Cc2ccccc2C[C@H]1C(=O)N1CC2CCCCC2[C@H]1C(=O)NCC(=O)N[C@@H](CCCCN)C(=O)N1Cc2ccccc2C[C@H]1C(=O)N[C@@H](CCCCN)C(=O)N[C@@H](CCCCN)C(=O)N[C@@H](CCCCN)C(=O)N[C@@H](CCCCN)C(N)=O (stereo partly drawn) (Ac-G[Phe(4-F)][Tic][Pro(3ξ,4ξ-(CH2)4)]GK[Tic][Pro(3ξ,4ξ-(CH2)4)]G[Phe(4-F)][Tic][Pro(3ξ,4ξ-(CH2)4)]GK[Tic]KKKK-NH2) | 0.3 (≈ 0.743 µg/mL) | 3 (≈ 7.43 µg/mL) | 10 (≈ 24.8 µg/mL) | 30 (≈ 74.3 µg/mL)
9 | CC(=O)NCCCC(=O)N[C@@H](Cc1ccccc1)C(=O)N1Cc2ccccc2C[C@H]1C(=O)N1[C@H](C(=O)NCCCC(=O)N[C@@H](CCCCN)C(=O)N2Cc3ccccc3C[C@H]2C(=O)N2[C@H](C(=O)NCCCC(=O)N[C@@H](Cc3ccccc3)C(=O)N3Cc4ccccc4C[C@H]3C(=O)N3[C@H](C(=O)NCCCC(=O)N[C@@H](CCCCN)C(=O)N4Cc5ccccc5C[C@H]4C(=O)N[C@@H](CCCCN)C(=O)N[C@@H](CCCCN)C(=O)N[C@@H](CCCCN)C(=O)N[C@@H](CCCCN)C(=O)N[C@@H](CCCCN)C(N)=O)C[C@@H]4CCCC[C@@H]43)C[C@@H]3CCCC[C@@H]32)C[C@@H]2CCCC[C@@H]21 (Ac-[GABA]F[Tic][Oic][GABA]K[Tic][Oic][GABA]F[Tic][Oic][GABA]K[Tic]KKKKK-NH2) | 1 (≈ 2.68 µg/mL) | 3 (≈ 8.04 µg/mL) | 30 (≈ 80.4 µg/mL) | 10 (≈ 26.8 µg/mL)
10 | CC(=O)NCCC(=O)N[C@@H](Cc1ccc(F)cc1)C(=O)N1Cc2ccccc2C[C@H]1C(=O)N1CC2CCCCC2[C@H]1C(=O)NCCC(=O)N[C@@H](CN)C(=O)N1Cc2ccccc2C[C@H]1C(=O)N1CC2CCCCC2[C@H]1C(=O)NCCC(=O)N[C@@H](Cc1ccc(F)cc1)C(=O)N1Cc2ccccc2C[C@H]1C(=O)N1CC2CCCCC2[C@H]1C(=O)NCCC(=O)N[C@@H](CN)C(=O)N1Cc2ccccc2C[C@H]1C(=O)N[C@@H](CN)C(=O)N[C@@H](CN)C(=O)N[C@@H](CN)C(=O)N[C@@H](CN)C(N)=O (stereo partly drawn) (Ac-[βAla][Phe(4-F)][Tic][Pro(3ξ,4ξ-(CH2)4)][βAla][Dap][Tic][Pro(3ξ,4ξ-(CH2)4)][βAla][Phe(4-F)][Tic][Pro(3ξ,4ξ-(CH2)4)][βAla][Dap][Tic][Dap][Dap][Dap][Dap]-NH2) | 0.3 (≈ 0.684 µg/mL) | 100 (≈ 228 µg/mL) | 30 (≈ 68.4 µg/mL) | 3 (≈ 6.84 µg/mL)
11 | CC(C)C[C@H](NC(=O)CNC(=O)[C@H](CCCCN)NC(=O)CN)C(=O)N1Cc2ccccc2C[C@H]1C(=O)N1[C@H](C(=O)NCC(=O)N[C@@H](CCCNC(=N)N)C(=O)N2Cc3ccccc3C[C@H]2C(=O)N2[C@H](C(=O)NCC(=O)N[C@@H](Cc3ccccc3)C(=O)N3Cc4ccccc4C[C@H]3C(=O)N3[C@H](C(=O)NCC(=O)N[C@@H](CCCNC(=N)N)C(=O)N4Cc5ccccc5C[C@H]4C(=O)N4[C@H](C(=O)NCC(=O)N[C@@H](Cc5ccccc5)C(=O)N5Cc6ccccc6C[C@H]5C(=O)N5[C@H](C(=O)NCC(=O)N[C@@H](CCCNC(=N)N)C(=O)N6Cc7ccccc7C[C@H]6C(=O)N6[C@H](C(=O)NCC(=O)N[C@@H](CCCCN)C(=O)N[C@@H](CCCNC(=N)N)C(N)=O)C[C@@H]7CCCC[C@@H]76)C[C@@H]6CCCC[C@@H]65)C[C@@H]5CCCC[C@@H]54)C[C@@H]4CCCC[C@@H]43)C[C@@H]3CCCC[C@@H]32)C[C@@H]2CCCC[C@@H]21 (H-GKGL[Tic][Oic]GR[Tic][Oic]GF[Tic][Oic]GR[Tic][Oic]GF[Tic][Oic]GR[Tic][Oic]GKR-NH2) | 1 (≈ 3.62 µg/mL) |  |  | 100 (≈ 362 µg/mL)
12 | CC(C)C[C@H](NC(=O)CNC(=O)[C@H](CCCCN)NC(=O)CN)C(=O)N1Cc2ccccc2C[C@H]1C(=O)N1CC2CCCCC2[C@H]1C(=O)N[C@@H](Cc1ccccc1)C(=O)N[C@@H](CCCCN)C(=O)N1Cc2ccccc2C[C@H]1C(=O)N1CC2CCCCC2[C@H]1C(=O)N[C@@H](CCCCN)C(=O)N[C@@H](Cc1ccccc1)C(=O)N1Cc2ccccc2C[C@H]1C(=O)N1CC2CCCCC2[C@H]1C(=O)N[C@@H](Cc1ccccc1)C(=O)N[C@@H](CCCCN)C(=O)N1Cc2ccccc2C[C@H]1C(=O)N1CC2CCCCC2[C@H]1C(=O)N[C@@H](CCCCN)C(=O)N[C@@H](Cc1ccccc1)C(=O)N1Cc2ccccc2C[C@H]1C(=O)N1CC2CCCCC2[C@H]1C(=O)N[C@@H](Cc1ccccc1)C(=O)N[C@@H](CCCCN)C(=O)N1Cc2ccccc2C[C@H]1C(=O)N1CC2CCCCC2[C@H]1C(=O)N[C@@H](Cc1ccccc1)C(=O)N[C@@H](CCCCN)C(=O)N[C@@H](CCCNC(=N)N)C(N)=O (stereo partly drawn) (H-GKGL[Tic][Pro(3ξ,4ξ-(CH2)4)]FK[Tic][Pro(3ξ,4ξ-(CH2)4)]KF[Tic][Pro(3ξ,4ξ-(CH2)4)]FK[Tic][Pro(3ξ,4ξ-(CH2)4)]KF[Tic][Pro(3ξ,4ξ-(CH2)4)]FK[Tic][Pro(3ξ,4ξ-(CH2)4)]FKR-NH2) | 3 (≈ 12.1 µg/mL) |  | 30 (≈ 121 µg/mL) | 100 (≈ 404 µg/mL)
